Measurements from patent US20190202836A1, “SELECTIVE DUAL INHIBITORS OF PI3 DELTA AND GAMMA PROTEIN KINASES” (Rhizen Pharmaceuticals SA, priority 2014, published 2019).

Tests used:
[1] = test system: mouse whole blood B-cell proliferation (CD45R); experiment: Assay 6B: Inhibition of LPS induced CD45R in mouse whole blood; type: cell-based; details: diluted mouse whole blood, 72 hours, read-out: EC50, inhibition of LPS-induced mouse whole blood B-cell proliferation (CD45R expression)
Method: The effect of Compound A1 on modulating B-cell receptor (BCR)-activated proliferation of human or mouse B-lymphocytes was determined. CD19 is a protein present on B cells from the earliest recognizable B-lineage cells during development to B-cell blasts but is however lost on maturation to plasma cells. LPS is an endotoxin and a major component of environmental microbes with a potent mitogenic activity on B-cells via the […].
Briefly, diluted mouse whole blood was treated with of DMSO or desired concentrations of Compound A1. Samples were induced with LPS 15 minutes after compound addition, and incubated for 72 hours at 37° C. and 5% CO2. Cells positive for CD45 and CD45R were determined by flow cytometry. Data are expressed as percentage CD45R positive cells in the total population.

[2] = molecular target: PI3Kβ (Homo sapiens, UniProt P42338); experiment: Assay 1: Fluorescent (HTRF) determination of PI3 kinase enzyme activity, PI3Kβ; type: biochemical
Text: (§1) Phosphoinositide 3 kinases (PI3K) belong to a class of lipid kinases that play a critical role in the regulation of several key cellular processes. The PI3K are capable of phosphorylating the 3-hydroxy position of phosphoinositols thereby generating second messengers involved in downstream signaling events. The homogenous time resolved fluorescence (HTRF) assay allows detection of 3,4,5-triphosphate (PIPS) formed as a result of phosphorylation of phosphotidylinositol 4,5-biphosphate (PIP2) by PI3K isoforms such as α, β, γ or δ.
(§2) PI3K isoform activity for α, β, γ or δ was determined using a PI3K human HTRF™ Assay Kit (Millipore, Billerica, Mass.) with modifications. All incubations were carried out at room temperature. 0.5 μl of 40× inhibitor (in 100% DMSO) or 100% DMSO were added to each well of a 384-well white plate (Greiner Bio-One, Monroe, N.C.) containing 14.5 μl 1× reaction buffer/PIP2 (10 mM MgCl2, 5 mM DTT, 1.38 μM PIP2) mix with or without enzyme, followed by 5 μl/well of 400 μM ATP and incubated for an additional 30 minutes. The reaction was terminated by adding 5 μl/well stop solution (Millipore, Billerica, Mass.). 5 μl of detection mix (Millipore, Billerica, Mass.) was then added to each well and incubated for 6-18 hours in the dark. HRTF ratio was measured on a microplate reader (BMG Labtech., Germany) at an excitation wavelength of 337 nm and emission wavelengths of 665 and 615 nm with an integration time of 400 msec counting delay of 50 msec.

[3] = molecular target: T1, PI3Kδ (Homo sapiens, UniProt O00329); experiment: Assay 4: anti-FcεR1 induced CD63 expression in basophils from human whole blood; type: cell-based; design: endogenous in cells; host or cells: basophils in human whole blood; details: n=1, read-out: EC50 for FcεR1 (PI3K δ), CD63 positive basophils
Method: PI3K δ and γ signaling in basophils manifested by an alteration of anti-FcεR1 or fMLP induced CD63 expression is a useful pharmacodynamic marker determined using the Flow2CAST® kit (Buhlmann Laboratories, Switzerland). The test procedure involves the following steps: • Mix the anti-coagulated blood sample by inverting the venipuncture tube several times; • Prepare fresh and pyrogen-free 3.5 ml polypropylene or polystyrene tubes suitable for Flow Cytometry measurements; • Add 49 μl of patient's whole blood to each tube; • Add 1 μl of 10% DMSO (background) or test compound (10% DMSO) to the assigned tubes and mix gently. Incubate at room temperature for 15 minutes; • Pipet 50 μl of the Stimulation buffer (background) or anti-FcεRI Ab or fMLP to each tube; • Add 100 μl of Stimulation Buffer to each tube; • Mix gently. Add 20 μl Staining Reagent (1:1 mix of FITC-CD63 and PE-CCR3) to each tube; • Mix gently, cover the tubes and incubate for 15 minutes at 37° C. in a water bath. […]
Percent CD63 positive cells within the gated basophil population were determined in different treatment groups and normalized to vehicle control.

[4] = molecular target: T1, PI3Kδ; experiment: Assay 1: Fluorescent (HTRF) determination of PI3 kinase enzyme activity, PI3Kδ; type: biochemical
Text: as §1, §2

[5] = Plasma protein binding (equilibrium dialysis), human; type: in vitro ADME; details: pH 7.4, 37° C.
Method: Below is provided the procedure for measuring plasma protein binding (using an equilibrium dialysis method). 745 μL of plasma was transferred into a 2 ml micro centrifuge tube. To that 5 μL of Compound A1 (150 μM) was added. Samples were mixed in the table top vortexer for 2 minutes. 50 μL plasma (n=2) was transferred in a pre-labeled 1.5 mL micro centrifuge tube treated as 0 hour sample.
The remaining 650 μL plasma sample were incubated for 30 minutes at 37° C. in a water bath. After 30 minute incubation, 50 μL plasma (n=2) was removed in a pre-labelled 1.5 mL micro centrifuge tube treated as 0.5 hour sample. 200 μL of the plasma sample (n=2) was transferred into the sample chamber which was indicated by the red ring. The red insert was placed into the base plate and 350 μL of buffer was transferred into the buffer chamber. Plates were incubated at 37° C. at approximately 100 RPM on an orbital shaker or 20 RPM on an up-and-down shaker for 4 hours. 50 μL of post dialysis-sample from the buffer and the plasma chambers were transferred into a pre-labelled micro centrifuged tube. 50 μL of plasma was added to the buffer samples and an equal volume of buffer (KH2PO4 Buffer pH 7.4) to the collected plasma samples. 150 μL of methanol containing internal standard (Tolbutamide 250 ng/ml) was added to precipitate the protein and release compound. […]

[6] = Metabolic stability in monkey liver microsomes; type: in vitro ADME
Method: Metabolic stability studies were conducted on Compounds A, A1, and A2 as well as Example 128 of WO 2012/151525 using mouse, rat, dog, monkey, and human liver microsomes. The protocol for the studies with mouse, rat, and human liver microsomes (all from BD Gentest, USA) is provided below. 0.4 mg protein was preincubated with 2 mM NADPH (cofactor) in phosphate buffer (pH-7.4) for 15 minutes at 37° C. and then added with 1 μM test item and incubated further for 60 minutes in triplicate. The reaction mixture was terminated with methanol containing an internal standard and centrifuged further to analyze the test item remaining in the supernatant by LC-MS/MS. The percent parent compound remaining was calculated in comparison with similar samples terminated at 0 minutes.

Chain of PI3Kβ (P42338 whole entry, canonical isoform): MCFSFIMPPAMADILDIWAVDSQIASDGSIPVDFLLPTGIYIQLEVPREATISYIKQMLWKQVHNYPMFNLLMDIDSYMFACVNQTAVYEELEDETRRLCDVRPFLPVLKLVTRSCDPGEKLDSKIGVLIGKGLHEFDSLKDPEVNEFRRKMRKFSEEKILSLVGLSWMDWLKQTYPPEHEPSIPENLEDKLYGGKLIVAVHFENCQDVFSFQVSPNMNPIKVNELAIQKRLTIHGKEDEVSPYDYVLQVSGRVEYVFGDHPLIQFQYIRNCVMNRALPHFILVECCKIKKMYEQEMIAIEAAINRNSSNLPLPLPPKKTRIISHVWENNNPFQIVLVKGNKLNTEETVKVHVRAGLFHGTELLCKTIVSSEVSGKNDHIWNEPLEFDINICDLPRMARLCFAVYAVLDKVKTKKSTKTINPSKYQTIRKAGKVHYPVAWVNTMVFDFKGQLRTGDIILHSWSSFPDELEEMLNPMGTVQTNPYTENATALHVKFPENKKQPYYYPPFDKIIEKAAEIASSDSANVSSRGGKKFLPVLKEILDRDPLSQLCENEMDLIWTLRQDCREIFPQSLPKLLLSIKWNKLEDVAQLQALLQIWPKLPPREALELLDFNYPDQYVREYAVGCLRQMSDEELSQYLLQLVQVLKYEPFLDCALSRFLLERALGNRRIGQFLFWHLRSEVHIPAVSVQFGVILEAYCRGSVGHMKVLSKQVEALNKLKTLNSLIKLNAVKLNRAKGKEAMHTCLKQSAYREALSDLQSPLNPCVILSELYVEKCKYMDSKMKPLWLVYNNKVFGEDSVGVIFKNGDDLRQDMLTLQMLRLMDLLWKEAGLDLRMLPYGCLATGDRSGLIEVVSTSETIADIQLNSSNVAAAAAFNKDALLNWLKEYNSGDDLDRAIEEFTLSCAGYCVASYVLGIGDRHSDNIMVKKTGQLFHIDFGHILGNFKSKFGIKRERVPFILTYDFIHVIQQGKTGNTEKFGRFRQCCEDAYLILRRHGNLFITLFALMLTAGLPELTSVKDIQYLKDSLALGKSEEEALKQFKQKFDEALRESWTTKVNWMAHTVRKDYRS
Chain of PI3Kβ (P27986 whole entry partner, canonical isoform): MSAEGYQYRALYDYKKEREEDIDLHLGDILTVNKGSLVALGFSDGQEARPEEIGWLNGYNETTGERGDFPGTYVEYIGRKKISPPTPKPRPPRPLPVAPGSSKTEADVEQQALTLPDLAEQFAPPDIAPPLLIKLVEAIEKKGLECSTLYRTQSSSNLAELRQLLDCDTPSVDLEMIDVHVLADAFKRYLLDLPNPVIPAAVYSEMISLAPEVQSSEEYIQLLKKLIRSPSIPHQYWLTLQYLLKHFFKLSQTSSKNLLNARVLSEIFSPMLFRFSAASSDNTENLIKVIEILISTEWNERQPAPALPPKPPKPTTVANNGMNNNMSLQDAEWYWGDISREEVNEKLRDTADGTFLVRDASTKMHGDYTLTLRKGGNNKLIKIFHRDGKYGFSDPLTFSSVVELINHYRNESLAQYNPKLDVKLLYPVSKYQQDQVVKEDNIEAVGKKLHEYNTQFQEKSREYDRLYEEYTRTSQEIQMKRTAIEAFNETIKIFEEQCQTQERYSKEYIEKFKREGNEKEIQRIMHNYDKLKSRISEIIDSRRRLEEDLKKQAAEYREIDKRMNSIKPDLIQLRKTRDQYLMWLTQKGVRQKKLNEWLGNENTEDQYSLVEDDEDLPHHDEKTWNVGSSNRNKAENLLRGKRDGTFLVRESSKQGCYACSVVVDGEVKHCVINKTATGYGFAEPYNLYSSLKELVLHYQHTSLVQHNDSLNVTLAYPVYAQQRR
T1 sequence (O00329 whole entry): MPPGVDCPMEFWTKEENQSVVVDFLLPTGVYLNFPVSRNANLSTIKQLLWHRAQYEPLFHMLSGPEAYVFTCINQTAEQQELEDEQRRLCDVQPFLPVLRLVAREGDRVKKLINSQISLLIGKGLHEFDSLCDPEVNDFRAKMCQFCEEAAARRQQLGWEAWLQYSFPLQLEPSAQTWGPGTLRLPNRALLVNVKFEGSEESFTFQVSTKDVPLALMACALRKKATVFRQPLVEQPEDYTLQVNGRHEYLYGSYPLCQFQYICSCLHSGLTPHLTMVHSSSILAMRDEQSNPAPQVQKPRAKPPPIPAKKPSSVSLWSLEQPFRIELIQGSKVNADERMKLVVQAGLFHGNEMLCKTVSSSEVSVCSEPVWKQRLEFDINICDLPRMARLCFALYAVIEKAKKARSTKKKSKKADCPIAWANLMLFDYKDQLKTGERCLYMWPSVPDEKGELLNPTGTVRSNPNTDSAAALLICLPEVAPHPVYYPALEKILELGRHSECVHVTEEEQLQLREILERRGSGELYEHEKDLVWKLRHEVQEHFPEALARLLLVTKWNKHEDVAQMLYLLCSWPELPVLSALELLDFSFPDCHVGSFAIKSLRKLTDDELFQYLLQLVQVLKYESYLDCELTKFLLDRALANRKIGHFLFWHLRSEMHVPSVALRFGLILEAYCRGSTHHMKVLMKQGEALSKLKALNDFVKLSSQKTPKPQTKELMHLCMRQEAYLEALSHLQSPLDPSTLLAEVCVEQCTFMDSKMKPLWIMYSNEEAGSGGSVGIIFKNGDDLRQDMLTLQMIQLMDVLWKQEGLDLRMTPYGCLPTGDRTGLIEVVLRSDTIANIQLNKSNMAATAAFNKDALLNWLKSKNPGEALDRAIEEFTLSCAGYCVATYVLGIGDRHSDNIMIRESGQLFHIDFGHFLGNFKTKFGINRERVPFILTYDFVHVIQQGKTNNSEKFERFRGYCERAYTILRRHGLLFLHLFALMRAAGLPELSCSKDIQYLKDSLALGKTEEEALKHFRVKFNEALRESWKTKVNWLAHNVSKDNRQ
T1 sequence (P27986 whole entry partner): as the sequence (P27986 whole entry partner, canonical isoform) above

COc1ccc(-c2nn([C@@H](C)c3oc4cccc(F)c4c(=O)c3-c3cccc(F)c3)c3ncnc(N)c23)cc1NS(C)(=O)=O [Compound A1, (S)—N-(5-(4-amino-1-(1-(5-fluoro-3-(3-fluorophenyl)-4-oxo-4H-chromen-2-yl)ethyl)-1H-pyrazolo[3,4-d]pyrimidin-3-yl)-2-methoxyphenyl)methanesulfonamide]
EC50 [1]: 128 nM | inhibition at 1 µM [2]: 46.8% | IC50 ([2]; HTRF enzyme assay): 1360 nM | Fold-Selectivity PI3Kβ ([2]; selectivity profile, enzyme IC50): > 45 fold | EC50 [3]: < 30 nM | IC50 [4]: 30.5 nM | fraction unbound at 4 h, 1 μM [5]: 0.0276 | Metabolic stability in liver microsomes (percent parent compound remaining), Monkey [6]: 78.8%
